# Experimental data taken from patent US9932381B2, “Exendin-4 derivatives as selective glucagon receptor agonists” (priority 2014, dated 2018).
# Non-standard residues stand in square brackets, D forms with d. Residues, ends and D or L forms follow the SMILES beside them. Ala(4-thiazolyl) = N[C@@H](Cc1cscn1)C(=O)O; Chg = N[C@H](C(=O)O)C1CCCCC1; Phg = N[C@H](C(=O)O)c1ccccc1; Tle = CC(C)(C)[C@H](N)C(=O)O; Nle = CCCC[C@H](N)C(=O)O
# Tests used:
# [1] = Solubility testing of exendin-4 derivatives (HPLC-UV of supernatant); type: physicochemical; details: pH 7.4
# Protocol: Prior to the testing of solubility and stability of a peptide batch, its content was determined. Therefore, two parameters were investigated, its purity (HPLC-UV) and the amount of salt load of the batch (ion chromatography).
# HPLC-UV was performed after 2 h of gentle agitation from the supernatant, which was obtained by 20 min of centrifugation at 4000 rpm.
# [2] = molecular target: T1, human glucagon receptor (hGLUC R) (Homo sapiens, UniProt P47871); experiment: cAMP response (HTRF) of HEK-293 cells stably expressing human glucagon receptor; type: cell-based; details: Table 4; read-out: EC50 hGLUC R
# T1 construct: expressed in transfected cells; host or cells: HEK-293
# T1 sequence (P47871 26-477): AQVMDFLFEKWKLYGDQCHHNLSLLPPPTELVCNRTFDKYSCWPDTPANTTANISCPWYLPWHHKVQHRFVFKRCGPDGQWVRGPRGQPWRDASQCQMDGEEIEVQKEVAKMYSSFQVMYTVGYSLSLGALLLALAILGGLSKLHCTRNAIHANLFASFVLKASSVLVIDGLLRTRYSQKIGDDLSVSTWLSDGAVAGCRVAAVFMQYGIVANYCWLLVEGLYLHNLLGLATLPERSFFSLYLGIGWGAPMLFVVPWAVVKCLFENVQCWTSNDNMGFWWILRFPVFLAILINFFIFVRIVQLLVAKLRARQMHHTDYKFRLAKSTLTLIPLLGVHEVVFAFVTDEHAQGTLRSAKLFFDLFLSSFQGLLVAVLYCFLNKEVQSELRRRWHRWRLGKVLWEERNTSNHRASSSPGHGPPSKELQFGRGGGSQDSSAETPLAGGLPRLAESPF
# Protocol: (§1) cAMP content of cells was determined using a kit from Cisbio Corp. (cat. no. 62AM4PEC) based on HTRF (Homogenous Time Resolved Fluorescence). For preparation, cells were split into T175 culture flasks and grown overnight to near confluency in medium (DMEM/10% FBS). Medium was then removed and cells washed with PBS lacking calcium and magnesium, followed by proteinase treatment with accutase (Sigma-Aldrich cat. no. A6964). Detached cells were washed and resuspended in assay buffer (1×HBSS; 20 mM HEPES, 0.1% BSA, 2 mM IBMX) and cellular density determined. They were then diluted to 400000 cells/ml and 25 μl-aliquots dispensed into the wells of 96-well plates. For measurement, 25 μl of test compound in assay buffer was added to the wells, followed by incubation for 30 minutes at room temperature.
# [3] = molecular target: T2, human GLP-1 receptor (hGLP-1 R) (Homo sapiens, UniProt P43220); experiment: cAMP response (HTRF) of HEK-293 cells stably expressing human GLP-1 receptor; type: cell-based; details: Table 4
# T2 construct: expressed in transfected cells; host or cells: HEK-293
# T2 sequence (P43220 24-463): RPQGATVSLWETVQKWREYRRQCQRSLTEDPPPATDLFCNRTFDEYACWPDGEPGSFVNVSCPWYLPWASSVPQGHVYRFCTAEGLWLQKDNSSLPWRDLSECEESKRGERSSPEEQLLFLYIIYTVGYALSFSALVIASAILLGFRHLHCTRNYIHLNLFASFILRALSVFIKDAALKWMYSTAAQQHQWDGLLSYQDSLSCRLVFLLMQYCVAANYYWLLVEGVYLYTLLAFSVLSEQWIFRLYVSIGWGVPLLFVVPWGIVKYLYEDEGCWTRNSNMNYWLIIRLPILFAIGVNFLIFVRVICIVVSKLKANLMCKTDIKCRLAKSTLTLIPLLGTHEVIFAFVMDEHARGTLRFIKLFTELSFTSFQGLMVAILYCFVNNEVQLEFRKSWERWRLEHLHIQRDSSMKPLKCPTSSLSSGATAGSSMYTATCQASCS
# Protocol: as §1, with “temperature. After addition of HTRF reagents diluted in lysis buffer (kit components), the plates were incubated for 1 hr, followed by measurement of the fluorescence ratio at 665/620 nm. In vitro potency of agonists was quantified by determining the concentrations that caused 50% activation of maximal response (EC50).” for “temperature.”
Compound,solubility at 2 h [1],EC50 [2],EC50 [3],other results
"CCCC[C@H](NC(=O)[C@H](CCC(N)=O)NC(=O)[C@H](CCCCN)NC(=O)[C@H](CO)NC(=O)[C@@H](NC(=O)[C@H](CC(=O)O)NC(=O)[C@H](CO)NC(=O)[C@@H](NC(=O)[C@H](Cc1ccccc1)NC(=O)[C@@H](NC(=O)CNC(=O)[C@H](CCC(N)=O)NC(=O)[C@H](CO)NC(=O)[C@@H](N)Cc1cscn1)[C@@H](C)O)[C@@H](C)O)C1CCCCC1)C(=O)N[C@@H](CCC(=O)O)C(=O)N[C@@H](CO)C(=O)N[C@@H](CCCNC(=N)N)C(=O)N[C@@H](CCCNC(=N)N)C(=O)N[C@@H](C)C(=O)N[C@@H](CCC(N)=O)C(=O)N[C@@H](CC(=O)O)C(=O)N[C@@H](Cc1ccccc1)C(=O)N[C@H](C(=O)N[C@@H](CCC(=O)O)C(=O)N[C@@H](Cc1c[nH]c2ccccc12)C(=O)N[C@@H](CC(C)C)C(=O)N[C@@H](CC(C)C)C(=O)N[C@@H](C)C(=O)N[C@H](C(=O)NCC(=O)N1CCC[C@H]1C(=O)N[C@@H](CCC(=O)O)C(=O)N[C@@H](CO)C(=O)NCC(=O)N[C@@H](C)C(=O)N1CCC[C@H]1C(=O)N1CCC[C@H]1C(=O)N1CCC[C@H]1C(=O)N[C@@H](CO)C(=O)O)[C@@H](C)O)[C@@H](C)CC [SEQ ID NO 20, Tza-S-Q-G-T-F-T-S-D-Chg-S-K-Q-Nle-ESRRAQDFIEWLLATGPESGAPPPS-OH] (H-[Ala(4-thiazolyl)]SQGTFTSD[Chg]SKQ[Nle]ESRRAQDFIEWLLATGPESGAPPPS-OH; N-terminus assumed)",,,,Solubility (pH7.4) [mg/ml] ([1]; 2 h): >10.0 mg/ml
"CC[C@H](C)[C@H](NC(=O)[C@H](Cc1ccccc1)NC(=O)[C@H](CC(=O)O)NC(=O)[C@H](CCC(N)=O)NC(=O)[C@H](C)NC(=O)[C@H](CCCNC(=N)N)NC(=O)[C@H](CCCNC(=N)N)NC(=O)[C@H](CO)NC(=O)[C@H](CCC(=O)O)NC(=O)[C@H](CC(C)C)NC(=O)[C@H](CCC(N)=O)NC(=O)[C@H](CCCCN)NC(=O)[C@H](CO)NC(=O)[C@@H](NC(=O)[C@H](CC(=O)O)NC(=O)[C@H](CO)NC(=O)[C@@H](NC(=O)[C@H](Cc1ccccc1)NC(=O)[C@@H](NC(=O)CNC(=O)[C@H](CCC(N)=O)NC(=O)[C@H](CO)NC(=O)[C@@H](N)Cc1cscn1)[C@@H](C)O)[C@@H](C)O)C1CCCCC1)C(=O)N[C@@H](CCC(=O)O)C(=O)N[C@@H](Cc1c[nH]c2ccccc12)C(=O)N[C@@H](CC(C)C)C(=O)N[C@@H](CC(C)C)C(=O)N[C@@H](C)C(=O)N[C@H](C(=O)NCC(=O)N1CCC[C@H]1C(=O)N[C@@H](CCC(=O)O)C(=O)N[C@@H](CO)C(=O)NCC(=O)N[C@@H](C)C(=O)N1CCC[C@H]1C(=O)N1CCC[C@H]1C(=O)N1CCC[C@H]1C(=O)N[C@@H](CO)C(=O)O)[C@@H](C)O [SEQ ID NO 23, Tza-S-Q-G-T-F-T-S-D-Chg-SKQLESRRAQDFIEWLLATGPESGAPPPS-OH] (H-[Ala(4-thiazolyl)]SQGTFTSD[Chg]SKQLESRRAQDFIEWLLATGPESGAPPPS-OH; N-terminus assumed)",> 10000 µg/mL,,,
"CC[C@H](C)[C@H](NC(=O)[C@H](Cc1ccccc1)NC(=O)[C@H](CCC(=O)O)NC(=O)[C@H](CCC(N)=O)NC(=O)[C@H](C)NC(=O)[C@H](CCCNC(=N)N)NC(=O)[C@H](CCCNC(=N)N)NC(=O)[C@H](CO)NC(=O)[C@H](CCC(=O)O)NC(=O)[C@H](CC(C)C)NC(=O)[C@H](CCC(N)=O)NC(=O)[C@H](CCCCN)NC(=O)[C@H](CO)NC(=O)[C@@H](NC(=O)[C@H](CC(=O)O)NC(=O)[C@H](CO)NC(=O)[C@@H](NC(=O)[C@H](Cc1ccccc1)NC(=O)[C@@H](NC(=O)CNC(=O)[C@H](CCC(N)=O)NC(=O)[C@H](CO)NC(=O)[C@@H](N)Cc1cscn1)[C@@H](C)O)[C@@H](C)O)c1ccccc1)C(=O)N[C@@H](CCC(=O)O)C(=O)N[C@@H](Cc1c[nH]c2ccccc12)C(=O)N[C@@H](CC(C)C)C(=O)N[C@@H](CC(C)C)C(=O)N[C@@H](C)C(=O)N[C@H](C(=O)NCC(=O)N1CCC[C@H]1C(=O)N[C@@H](CCC(=O)O)C(=O)N[C@@H](CO)C(=O)NCC(=O)N[C@@H](C)C(=O)N1CCC[C@H]1C(=O)N1CCC[C@H]1C(=O)N1CCC[C@H]1C(=O)N[C@@H](CO)C(=O)O)[C@@H](C)O [SEQ ID NO 10, Tza-S-Q-G-T-F-T-S-D-Phg-SKQLESRRAQEFIEWLLATGPESGAPPPS-OH] (H-[Ala(4-thiazolyl)]SQGTFTSD[Phg]SKQLESRRAQEFIEWLLATGPESGAPPPS-OH; N-terminus assumed)",,0.006 nM,45 nM,
"CC[C@H](C)[C@H](NC(=O)[C@H](Cc1ccccc1)NC(=O)[C@H](CCC(=O)O)NC(=O)[C@H](CCC(N)=O)NC(=O)[C@H](C)NC(=O)[C@H](CCCNC(=N)N)NC(=O)[C@H](CCCNC(=N)N)NC(=O)[C@H](CO)NC(=O)[C@H](CCC(=O)O)NC(=O)[C@H](CC(C)C)NC(=O)[C@H](CCC(N)=O)NC(=O)[C@H](CCCCN)NC(=O)[C@H](CO)NC(=O)[C@H](CC(C)C)NC(=O)[C@H](CC(=O)O)NC(=O)[C@H](CO)NC(=O)[C@@H](NC(=O)[C@H](Cc1ccccc1)NC(=O)[C@@H](NC(=O)CNC(=O)[C@H](CCC(N)=O)NC(=O)[C@H](CO)NC(=O)[C@@H](N)Cc1cscn1)[C@@H](C)O)[C@@H](C)O)C(=O)N[C@@H](CCC(=O)O)C(=O)N[C@@H](Cc1c[nH]c2ccccc12)C(=O)N[C@@H](CC(C)C)C(=O)N[C@@H](CC(C)C)C(=O)N[C@@H](C)C(=O)N[C@H](C(=O)NCC(=O)N1CCC[C@H]1C(=O)N[C@@H](CCC(=O)O)C(=O)N[C@@H](CO)C(=O)NCC(=O)N[C@@H](C)C(=O)N1CCC[C@H]1C(=O)N1CCC[C@H]1C(=O)N1CCC[C@H]1C(=O)N[C@@H](CO)C(=O)O)[C@@H](C)O [SEQ ID NO 12, Tza-SQGTFTSDLSKQLESRRAQEFIEWLLATGPESGAPPPS-OH] (H-[Ala(4-thiazolyl)]SQGTFTSDLSKQLESRRAQEFIEWLLATGPESGAPPPS-OH)",,0.001 nM,20 nM,

# Now from value to molecule, other results behind:
solubility at 2 h [1],EC50 [2],EC50 [3],Compound,other results
> 10000 µg/mL,,,"CCCC[C@H](NC(=O)[C@H](CCC(N)=O)NC(=O)[C@H](CCCCN)NC(=O)[C@H](CO)NC(=O)[C@@H](NC(=O)[C@H](CC(=O)O)NC(=O)[C@H](CO)NC(=O)[C@@H](NC(=O)[C@H](Cc1ccccc1)NC(=O)[C@@H](NC(=O)CNC(=O)[C@H](CCC(N)=O)NC(=O)[C@H](CO)NC(=O)[C@@H](N)Cc1cscn1)[C@@H](C)O)[C@@H](C)O)C(C)(C)C)C(=O)N[C@@H](CCC(=O)O)C(=O)N[C@@H](CO)C(=O)N[C@@H](CCCNC(=N)N)C(=O)N[C@@H](CCCNC(=N)N)C(=O)N[C@@H](C)C(=O)N[C@@H](CCC(N)=O)C(=O)N[C@@H](CCC(=O)O)C(=O)N[C@@H](Cc1ccccc1)C(=O)N[C@H](C(=O)N[C@@H](CCC(=O)O)C(=O)N[C@@H](Cc1c[nH]c2ccccc12)C(=O)N[C@@H](CC(C)C)C(=O)N[C@@H](CC(C)C)C(=O)N[C@@H](C)C(=O)N[C@H](C(=O)NCC(=O)N1CCC[C@H]1C(=O)N[C@@H](CCC(=O)O)C(=O)N[C@@H](CO)C(=O)NCC(=O)N[C@@H](C)C(=O)N1CCC[C@H]1C(=O)N1CCC[C@H]1C(=O)N1CCC[C@H]1C(=O)N[C@@H](CO)C(=O)O)[C@@H](C)O)[C@@H](C)CC [SEQ ID NO 25, Tza-S-Q-G-T-F-T-S-D-Tle-S-K-Q-Nle-ESRRAQEFIEWLLATGPESGAPPPS-OH] (H-[Ala(4-thiazolyl)]SQGTFTSD[Tle]SKQ[Nle]ESRRAQEFIEWLLATGPESGAPPPS-OH; N-terminus assumed)",
> 10000 µg/mL,,,"CCCC[C@H](NC(=O)[C@H](CCC(N)=O)NC(=O)[C@H](CCCCN)NC(=O)[C@H](CO)NC(=O)[C@@H](NC(=O)[C@H](CC(=O)O)NC(=O)[C@H](CO)NC(=O)[C@@H](NC(=O)[C@H](Cc1ccccc1)NC(=O)[C@@H](NC(=O)CNC(=O)[C@H](CCC(N)=O)NC(=O)[C@H](CO)NC(=O)[C@@H](N)Cc1cscn1)[C@@H](C)O)[C@@H](C)O)C1CCCCC1)C(=O)N[C@@H](CCC(=O)O)C(=O)N[C@@H](CO)C(=O)N[C@@H](CCCNC(=N)N)C(=O)N[C@@H](CCCNC(=N)N)C(=O)N[C@@H](C)C(=O)N[C@@H](CCC(N)=O)C(=O)N[C@@H](CCC(=O)O)C(=O)N[C@@H](Cc1ccccc1)C(=O)N[C@H](C(=O)N[C@@H](CCC(=O)O)C(=O)N[C@@H](Cc1c[nH]c2ccccc12)C(=O)N[C@@H](CC(C)C)C(=O)N[C@@H](CC(C)C)C(=O)N[C@@H](C)C(=O)N[C@H](C(=O)NCC(=O)N1CCC[C@H]1C(=O)N[C@@H](CCC(=O)O)C(=O)N[C@@H](CO)C(=O)NCC(=O)N[C@@H](C)C(=O)N1CCC[C@H]1C(=O)N1CCC[C@H]1C(=O)N1CCC[C@H]1C(=O)N[C@@H](CO)C(=O)O)[C@@H](C)O)[C@@H](C)CC [SEQ ID NO 24, Tza-S-Q-G-T-F-T-S-D-Chg-S-K-Q-Nle-ESRRAQEFIEWLLATGPESGAPPPS-OH] (H-[Ala(4-thiazolyl)]SQGTFTSD[Chg]SKQ[Nle]ESRRAQEFIEWLLATGPESGAPPPS-OH)",
